Assay: SAD study: cardiac safety (ECG, telemetry, QTcF prolongation)

CCC(=O)C(C[C@H](C)N(C)C)(c1ccccc1)c1ccccc1 [d-methadone]
QTcF Reading 1 (100 mg, subject 9056, 0.5 h): 415 ms | QTcF Reading 2 (100 mg, subject 9056, 0.5 h): 424 ms | QTcF Reading 3 (100 mg, subject 9056, 0.5 h): 436 ms | QTcF Average (100 mg, subject 9056, 2 h): 439 ms | QTcF Reading 1 (100 mg, subject 9056, 2 h): 445 ms | QTcF Reading 2 (100 mg, subject 9056, 2 h): 426 ms | QTcF Reading 3 (100 mg, subject 9056, 2 h): 446 ms | QTcF Average (100 mg, subject 9056, 3 h): 442 ms | QTcF Reading 1 (100 mg, subject 9056, 3 h): 453 ms | QTcF Reading 2 (100 mg, subject 9056, 3 h): 443 ms | QTcF Reading 3 (100 mg, subject 9056, 3 h): 429 ms | QTcF Average (100 mg, subject 9056, 5 h): 429 ms | QTcF Reading 1 (100 mg, subject 9056, 5 h): 419 ms | QTcF Reading 2 (100 mg, subject 9056, 5 h): 448 ms | QTcF Reading 3 (100 mg, subject 9056, 5 h): 419 ms | QTcF Average (100 mg, subject 9056, 8 h): 446 ms | QTcF Reading 1 (100 mg, subject 9056, 8 h): 436 ms | QTcF Reading 2 (100 mg, subject 9056, 8 h): 457 ms | QTcF Reading 3 (100 mg, subject 9056, 8 h): 444 ms | QTcF Average (100 mg, subject 9056, 24 h): 432 ms | QTcF Reading 1 (100 mg, subject 9056, 24 h): 432 ms | QTcF Reading 2 (100 mg, subject 9056, 24 h): 431 ms | QTcF Reading 3 (100 mg, subject 9056, 24 h): 434 ms | QTcF Average (100 mg, subject 9056, 48 h): 422 ms | QTcF Reading 1 (100 mg, subject 9056, 48 h): 418 ms | QTcF Reading 2 (100 mg, subject 9056, 48 h): 433 ms | QTcF Reading 3 (100 mg, subject 9056, 48 h): 416 ms | Overall ECG result Abnormal, NCS (150 mg (N = 6), 0.5 h): 1 (16.7) n (%) | Overall ECG result Normal (150 mg (N = 6), 0.5 h): 5 (83.3) n (%) | Overall ECG result Abnormal, NCS (150 mg (N = 6), 1 h): 2 (33.3) n (%) | Overall ECG result Normal (150 mg (N = 6), 1 h): 4 (66.7) n (%) | Overall ECG result Abnormal, NCS (150 mg (N = 6), 2 h): 2 (33.3) n (%) | Overall ECG result Normal (150 mg (N = 6), 2 h): 4 (66.7) n (%) | Overall ECG result Abnormal, NCS (150 mg (N = 6), 3 h): 4 (66.7) n (%) | Overall ECG result Normal (150 mg (N = 6), 3 h): 2 (33.3) n (%) | Overall ECG result Abnormal, NCS (150 mg (N = 6), 5 h): 2 (33.3) n (%) | Overall ECG result Normal (150 mg (N = 6), 5 h): 4 (66.7) n (%) | Overall ECG result Abnormal, NCS (150 mg (N = 6), 8 h): 2 (33.3) n (%) | Overall ECG result Normal (150 mg (N = 6), 8 h): 4 (66.7) n (%) | Overall ECG result Abnormal, NCS (150 mg (N = 6), 12 h): 2 (33.3) n (%) | Overall ECG result Normal (150 mg (N = 6), 12 h): 4 (66.7) n (%) | Overall ECG result Abnormal, NCS (150 mg (N = 6), 24 h): 1 (16.7) n (%) | Overall ECG result Normal (150 mg (N = 6), 24 h): 5 (83.3) n (%) | Overall ECG result Abnormal, NCS (150 mg (N = 6), 48 h): 1 (16.7) n (%) | Overall ECG result Normal (150 mg (N = 6), 48 h): 5 (83.3) n (%) | Overall ECG result Abnormal, NCS (150 mg (N = 6), 72 h): 0 n (%) | Overall ECG result Normal (150 mg (N = 6), 72 h): 6 (100) n (%) | Overall ECG result Abnormal, NCS (150 mg (N = 6), Visit 3): 0 n (%) | Overall ECG result Normal (150 mg (N = 6), Visit 3): 6 (100) n (%) | QTcF Average (150 mg, subject 9088, 3 h): 422 ms | QTcF Reading 1 (150 mg, subject 9088, 3 h): 410 ms | QTcF Reading 2 (150 mg, subject 9088, 3 h): 434 ms | QTcF Reading 3 (150 mg, subject 9088, 3 h): 423 ms | QTcF Average (150 mg, subject 9088, 12 h): 430 ms | QTcF Reading 1 (150 mg, subject 9088, 12 h): 434 ms | QTcF Reading 2 (150 mg, subject 9088, 12 h): 427 ms | QTcF Reading 3 (150 mg, subject 9088, 12 h): 429 ms | QTcF Average (150 mg, subject 9099, 3 h): 429 ms | QTcF Reading 1 (150 mg, subject 9099, 3 h): 420 ms | QTcF Reading 2 (150 mg, subject 9099, 3 h): 431 ms | QTcF Reading 3 (150 mg, subject 9099, 3 h): 435 ms | QTcF Average (150 mg, subject 9099, 5 h): 436 ms | QTcF Reading 1 (150 mg, subject 9099, 5 h): 437 ms | QTcF Reading 2 (150 mg, subject 9099, 5 h): 440 ms | QTcF Reading 3 (150 mg, subject 9099, 5 h): 431 ms | Overall ECG result Abnormal, NCS (200 mg (N = 1), 0.5 h): 1 (100) n (%) | Overall ECG result Normal (200 mg (N = 1), 0.5 h): 0 n (%) | Overall ECG result Abnormal, NCS (200 mg (N = 1), 1 h): 1 (100) n (%) | Overall ECG result Normal (200 mg (N = 1), 1 h): 0 n (%) | Overall ECG result Abnormal, NCS (200 mg (N = 1), 2 h): 1 (100) n (%) | Overall ECG result Normal (200 mg (N = 1), 2 h): 0 n (%) | Overall ECG result Abnormal, NCS (200 mg (N = 1), 3 h): 1 (100) n (%) | Overall ECG result Normal (200 mg (N = 1), 3 h): 0 n (%) | Overall ECG result Abnormal, NCS (200 mg (N = 1), 5 h): 1 (100) n (%) | Overall ECG result Normal (200 mg (N = 1), 5 h): 0 n (%) | Overall ECG result Abnormal, NCS (200 mg (N = 1), 8 h): 0 n (%) | Overall ECG result Normal (200 mg (N = 1), 8 h): 1 (100) n (%) | Overall ECG result Abnormal, NCS (200 mg (N = 1), 12 h): 0 n (%) | Overall ECG result Normal (200 mg (N = 1), 12 h): 1 (100) n (%) | Overall ECG result Abnormal, NCS (200 mg (N = 1), 24 h): 1 (100) n (%) | Overall ECG result Normal (200 mg (N = 1), 24 h): 0 n (%) | Overall ECG result Abnormal, NCS (200 mg (N = 1), 48 h): 0 n (%) | Overall ECG result Normal (200 mg (N = 1), 48 h): 1 (100) n (%) | Overall ECG result Abnormal, NCS (200 mg (N = 1), 72 h): 0 n (%) | Overall ECG result Normal (200 mg (N = 1), 72 h): 1 (100) n (%) | Overall ECG result Abnormal, NCS (200 mg (N = 1), Visit 3): 0 n (%) | Overall ECG result Normal (200 mg (N = 1), Visit 3): 1 (100) n (%) | QTcF Average (200 mg, subject 9078, 3 h): 426 ms | QTcF Reading 1 (200 mg, subject 9078, 3 h): 441 ms | QTcF Reading 2 (200 mg, subject 9078, 3 h): 422 ms | QTcF Reading 3 (200 mg, subject 9078, 3 h): 416 ms | ECG abnormal result: QTcF prolongation (SAD 5 mg, 1 h): 1 (16.7) n (%) | ECG abnormal result: QTcF prolongation (SAD 5 mg, 2 h): 2 (33.3) n (%) | ECG abnormal result: QTcF prolongation (SAD 5 mg, 3 h): 1 (16.7) n (%) | ECG abnormal result: QTcF prolongation (SAD 5 mg, 5 h): 2 (33.3) n (%) | ECG abnormal result: QTcF prolongation (SAD 5 mg, total): 3 (50.0) n (%) | ECG abnormal result: QTcF prolongation (SAD 20 mg, total): 0 n (%) | ECG abnormal result: QTcF prolongation (SAD 60 mg, total): 0 n (%) | ECG abnormal result: QTcF prolongation (SAD 100 mg, 0.5 h): 1 (16.7) n (%) | ECG abnormal result: QTcF prolongation (SAD 100 mg, 2 h): 1 (16.7) n (%) | ECG abnormal result: QTcF prolongation (SAD 100 mg, 3 h): 1 (16.7) n (%) | ECG abnormal result: QTcF prolongation (SAD 100 mg, 5 h): 1 (16.7) n (%) | ECG abnormal result: QTcF prolongation (SAD 100 mg, 8 h): 1 (16.7) n (%) | ECG abnormal result: QTcF prolongation (SAD 100 mg, 24 h): 1 (16.7) n (%) | ECG abnormal result: QTcF prolongation (SAD 100 mg, 48 h): 1 (16.7) n (%) | ECG abnormal result: QTcF prolongation (SAD 100 mg, total): 1 (16.7) n (%) | ECG abnormal result: QTcF prolongation (SAD 150 mg, 3 h): 2 (33.3) n (%) | ECG abnormal result: QTcF prolongation (SAD 150 mg, 5 h): 1 (16.7) n (%) | ECG abnormal result: QTcF prolongation (SAD 150 mg, 12 h): 1 (16.7) n (%) | ECG abnormal result: QTcF prolongation (SAD 150 mg, total): 2 (33.3) n (%) | ECG abnormal result: QTcF prolongation (SAD 200 mg (N=1), 3 h): 1 (100) n (%) | ECG abnormal result: QTcF prolongation (SAD 200 mg (N=1), total): 1 (100) n (%) | Dose relation of QTcF prolongation (SAD study): no dose-related effects were observed | Maximum QTcF interval observed (SAD study, Subject 9056): 457 ms

From US20180214395A1 (priority 2017, published 2018)
